The text below walks through data of patent publication US20060241168A1, “Antidepressant” (priority 2002, published 2006).

In the assay the test system is Akt. Briefly: Akt phosphorylation in rat hippocampus glia mixed culturing system (immunoprecipitation, Western blotting). It is filed as cell-based. As to conditions: rat hippocampus mixed culture; added at 300 nM or 100 nM; after one day and three days. Here is the method: The hippocampus was removed from a 3 day-old rat and the cells were dispersed in a nerve dispersing solution. After the number of the cells was counted, the cells were suspended in a DMEM/F-12 medium containing 10% FCS (Embryo Max) and was then seeded on a 6-well plate coated with type I collagen at a density of 3×10^5 cells/cm^2. After cultured for 4 days, the medium was replaced with a N2 supplement-containing medium. Compound (I) (Compound 17a was used; hereinafter referred to Compound A) was added to a well at 300 nM or 100 nM, and IGF-1 was added to a well at 100 ng/mL. One day or three days after the addition, the cells were collected using Lysis Buffer containing protease inhibitor cocktail. Each cell suspension was centrifuged at 20000 rpm for 30 minutes and the supernatant was collected. An anti-5G3 Akt antibody was added to the supernatant to immunoprecipitate intracellular Akt. The resulting precipitate was subjected to SDS-PAGE using a 5-20% polyacrylamide gel and then to Western blotting. An anti-Phospho Akt antibody as a primary antibody and an HRP-linked anti-Rabbit antibody as a secondary antibody were used to detect the bands of phosphorylated Akt (Ser473 and Thr308). In order to detect the total Akt, the PVDF membrane was immersed in a reprobe buffer and permeated at 55° C. for 20 minutes to peel the antibodies. […]
For orientation: In western blotting, separated proteins are transferred to a membrane and probed.

With `COc1cc2c(cc1OC)CN(c1c(C)c(C)c3c(c1C)[C@@H](c1ccc(C)cc1)C(C)(C)O3)C2` [Compound A], the “phosphorylation of Akt at Ser473” value is “promoted phosphorylation” and the “phosphorylation of Akt at Thr308” value is reported as “promoted phosphorylation”.
